In PMC4082485, “The Rodin-Ohno hypothesis that two enzyme superfamilies descended from one ancestral gene: an unlikely scenario for the origins of translation that will not be dismissed” (Biology Direct, 2014):

Assays:
HisRS Urzyme (HisRS 2) = target: T1, HisRS Urzyme (HisRS 2) (Escherichia coli, UniProt P60906); test: Michaelis-Menten steady-state kinetics of amino acid activation; assay type: biochemical; details: ATP co-substrate; only kcat/KM free energies plotted
T1 construct: gene hisS; HisRS invariant core (Motifs 1 and 2, 122-residue base fragment); MBP fusion, TEV cleavage
T1 sequence (P60906 25-146): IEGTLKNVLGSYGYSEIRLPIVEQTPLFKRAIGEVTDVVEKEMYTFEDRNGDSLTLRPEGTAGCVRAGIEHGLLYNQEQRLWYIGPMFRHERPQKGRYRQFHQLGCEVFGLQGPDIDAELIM

[1] = target: T2, TrpRS 46-residue peptide (46-mer, Class I ATP binding site) (Geobacillus stearothermophilus, UniProt P00953); test: fluorescence titration of ATP with peptide (Mildvan assay)
T2 construct: gene trpS
T2 sequence (P00953 1-46 limits assumed): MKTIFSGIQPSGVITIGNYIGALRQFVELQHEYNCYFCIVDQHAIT

[2] = target: T3, HisRS 46-residue peptide (46-mer, Class II ATP binding site) (Escherichia coli, UniProt P60906); test: as above; details: pH 4.5; range printed jointly for the TrpRS and HisRS 46-mers, not assigned to either
T3 construct: gene hisS
T3 sequence (P60906 101-146): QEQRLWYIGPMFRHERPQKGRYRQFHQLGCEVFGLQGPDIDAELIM

| Kd [1] [µM] | Kd [2] [µM] | SMILES | Michaelis-Menten steady-state kinetics of amino acid activation (HisRS Urzyme (HisRS 2)) |
| --- | --- | --- | --- |
|  |  | N[C@@H](Cc1cnc[nH]1)C(=O)O [histidine] | they both preferentially activate amino acids similar to the original substrate (i.e., Leu and His) |
| 10 to 65 | 10 to 65 | Nc1ncnc2c1ncn2[C@@H]1O[C@H](COP(=O)(O)OP(=O)(O)OP(=O)(O)O)[C@@H](O)[C@H]1O [ATP] |  |
